Data from PubChem BioAssay AID328 (DTP/NCI, 2004).
Values joined by “and” are separate entries in the source; they are usually repeats but may differ in a detail not shown here. Equal values may be shown once. Toxic doses and inconclusive results are not listed.

Tested on: BDF1 mice, P388 leukemia ip, median survival T/C
Assay: NCI In Vivo Anticancer Drug Screen. Data for tumor model P388 Leukemia (intraperitoneal) in B6D2F1 (BDF1) mice
Conditions: endpoint: median survival time, higher = longer survival
Procedure, shortened: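 Steps: implant the tumour, treat one group with compound and another with vehicle, record survival, then divide treated by control.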

[1] = dose: 25.0 mg/kg/injection, schedule: Q04DX003 (ip), vehicle: saline
[2] = dose: 50.0 mg/kg/injection, schedule: Q04DX003 (ip), vehicle: saline
[3] = dose: 100.0 mg/kg/injection, schedule: Q04DX003 (ip), vehicle: saline
[4] = dose: 50.0 mg/kg/injection, schedule: Q01DX009 (ip), vehicle: Klucel (hydroxypropylcellulose) (HPC)
[5] = dose: 100.0 mg/kg/injection, schedule: Q01DX009 (ip), vehicle: Klucel (hydroxypropylcellulose) (HPC)
[6] = dose: 200.0 mg/kg/injection, schedule: Q01DX009 (ip), vehicle: Klucel (hydroxypropylcellulose) (HPC)
[7] = dose: 100.0 mg/kg/injection, schedule: Q04DX003 (ip), vehicle: saline with Tween-80
[8] = dose: 100.0 mg/kg/injection, schedule: Q04DX003 (ip), vehicle: Klucel (hydroxypropylcellulose) (HPC)
[9] = dose: 200.0 mg/kg/injection, schedule: Q04DX003 (ip), vehicle: Klucel (hydroxypropylcellulose) (HPC)
[10] = dose: 400.0 mg/kg/injection, schedule: Q04DX003 (ip), vehicle: Klucel (hydroxypropylcellulose) (HPC)
[11] = dose: 100.0 mg/kg/injection, schedule: Q01DX009 (ip), vehicle: saline with Tween-80
[12] = dose: 200.0 mg/kg/injection, schedule: Q01DX009 (ip), vehicle: saline with Tween-80
[13] = dose: 200.0 mg/kg/injection, schedule: Q04DX003 (ip), vehicle: saline with Tween-80
[14] = dose: 400.0 mg/kg/injection, schedule: Q01DX009 (ip), vehicle: saline with Tween-80
[15] = dose: 400.0 mg/kg/injection, schedule: Q04DX003 (ip), vehicle: saline with Tween-80
[16] = dose: 50.0 mg/kg/injection, schedule: Q01DX009 (ip), vehicle: saline with Tween-80
[17] = dose: 50.0 mg/kg/injection, schedule: Q04DX003 (ip), vehicle: saline with Tween-80
[18] = dose: 25.0 mg/kg/injection, schedule: Q01DX009 (ip), vehicle: saline with Tween-80

CCCCCCCCCCCCNC(=O)OCCN(CCOC(=O)NCCCCCCCCCCCC)C(=O)COc1ccc(Cl)cc1
T/C (dose: 100.0 mg/kg/injection, schedule: Q04DX003 (ip), vehicle: other): 100 % of control | T/C (dose: 200.0 mg/kg/injection, schedule: Q04DX003 (ip), vehicle: other): 100 % of control | T/C (dose: 400.0 mg/kg/injection, schedule: Q04DX003 (ip), vehicle: other): 100 % of control

Cn1ncc2cncnc21
T/C (dose: 100.0 mg/kg/injection, schedule: Q04DX003 (ip), vehicle: alcohol): 113 % of control | T/C (dose: 200.0 mg/kg/injection, schedule: Q04DX003 (ip), vehicle: alcohol): 95 % of control | T/C (dose: 400.0 mg/kg/injection, schedule: Q04DX003 (ip), vehicle: alcohol): 100 % of control

O=c1[nH]c2cc(Cl)ccc2c(CCl)c1Cl
T/C [1]: 109 % of control | T/C [2]: 104 % of control | T/C (dose: 56.25 mg/kg/injection, schedule: Q01DX001 (ip), vehicle: saline with Tween-80): 109 % of control | T/C [3]: 100 % of control | T/C (dose: 112.5 mg/kg/injection, schedule: Q01DX001 (ip), vehicle: saline with Tween-80): 113 % of control | T/C (dose: 225.0 mg/kg/injection, schedule: Q01DX001 (ip), vehicle: saline with Tween-80): 109 % of control

CCOC(=O)c1ccc(NC(=O)Nc2c(C)n(C)n(-c3ccccc3)c2=O)cc1
T/C [4]: 100 % of control | T/C [5]: 100 % of control | T/C [6]: 90 % of control

COc1cc2c(c(OC)c1OC)-c1cc(I)c(O)cc1[C@@H](NC(C)=O)CC2
T/C (dose: 2.75 mg/kg/injection, schedule: Q04DX003 (ip), vehicle: saline with Tween-80): 110 % of control | T/C (dose: 5.5 mg/kg/injection, schedule: Q04DX003 (ip), vehicle: saline with Tween-80): 104 % of control | T/C (dose: 11.0 mg/kg/injection, schedule: Q04DX003 (ip), vehicle: saline with Tween-80): 155 % of control | T/C (dose: 22.0 mg/kg/injection, schedule: Q04DX003 (ip), vehicle: saline with Tween-80): 160 % of control | T/C (dose: 66.0 mg/kg/injection, schedule: Q04DX003 (ip), vehicle: saline with Tween-80): 185 % of control and 222 % of control | T/C [7]: 180 % of control and 194 % of control | T/C (dose: 150.0 mg/kg/injection, schedule: Q04DX003 (ip), vehicle: saline with Tween-80): 205 % of control

Cc1cccc(C(=O)NN)c1O
T/C (dose: 25.0 mg/kg/injection, schedule: Q01DX009 (ip), vehicle: saline + alcohol): 92 % of control | T/C (dose: 100.0 mg/kg/injection, schedule: Q01DX009 (ip), vehicle: saline + alcohol): 97 % of control

COc1ccc(/C=N\NC(=O)OC(C)(C)C)c(OC)c1OC
T/C (dose: 100.0 mg/kg/injection, schedule: Q01DX009 (ip), vehicle: acetone): 100 % of control | T/C [8]: 115 % of control | T/C (dose: 200.0 mg/kg/injection, schedule: Q01DX009 (ip), vehicle: acetone): 86 % of control | T/C [9]: 110 % of control | T/C (dose: 400.0 mg/kg/injection, schedule: Q01DX009 (ip), vehicle: acetone): 109 % of control | T/C [10]: 100 % of control

COC(=O)C(CSCSC)NC(=O)Nc1ccc(F)cc1 (centres undefined)
T/C [11]: 100 % of control | T/C [7]: 100 % of control | T/C [12]: 100 % of control | T/C [13]: 95 % of control | T/C [14]: 109 % of control | T/C [15]: 90 % of control

c1ccc2c3c(ccc2c1)Sc1ccc2ccccc2c1N3
T/C [11]: 90 % of control | T/C [7]: 104 % of control | T/C [12]: 90 % of control | T/C [13]: 90 % of control | T/C [14]: 90 % of control | T/C [15]: 90 % of control

Cc1noc2ncnc(NCCCN(C)C)c12
T/C [16]: 99 % of control | T/C [11]: 99 % of control | T/C [12]: 102 % of control

O=C1c2ccccc2C(=O)N1CCc1ccccn1
T/C [17]: 100 % of control | T/C [11]: 100 % of control | T/C [7]: 95 % of control and 111 % of control | T/C [12]: 95 % of control | T/C [13]: 100 % of control and 111 % of control | T/C [15]: 88 % of control

NC=NC(CCC(=O)O)C(=O)O (centres undefined)
T/C (dose: 12.5 mg/kg/injection, schedule: Q01DX005 (ip), vehicle: saline): 90 % of control | T/C (dose: 25.0 mg/kg/injection, schedule: Q01DX005 (ip), vehicle: saline): 96 % of control | T/C (dose: 50.0 mg/kg/injection, schedule: Q01DX005 (ip), vehicle: saline): 91 % of control

COc1ccc(C(C#N)N2CCCCC2)cc1 (centres undefined)
T/C (dose: 12.5 mg/kg/injection, schedule: Q01DX009 (ip), vehicle: Klucel (hydroxypropylcellulose) (HPC)): 115 % of control | T/C (dose: 25.0 mg/kg/injection, schedule: Q01DX009 (ip), vehicle: Klucel (hydroxypropylcellulose) (HPC)): 100 % of control | T/C (dose: 25.0 mg/kg/injection, schedule: Q04DX003 (ip), vehicle: Klucel (hydroxypropylcellulose) (HPC)): 113 % of control | T/C [4]: 100 % of control | T/C (dose: 50.0 mg/kg/injection, schedule: Q04DX003 (ip), vehicle: Klucel (hydroxypropylcellulose) (HPC)): 100 % of control | T/C [8]: 100 % of control and 104 % of control

O=C(OCC#CC#CCOC(=O)c1ccccc1)c1ccccc1
T/C [5]: 104 % of control | T/C [8]: 100 % of control | T/C [6]: 113 % of control | T/C [9]: 90 % of control | T/C (dose: 400.0 mg/kg/injection, schedule: Q01DX009 (ip), vehicle: Klucel (hydroxypropylcellulose) (HPC)): 104 % of control | T/C [10]: 109 % of control

O=C(NC(=O)c1c(F)cccc1F)Nc1cccc(C(F)(F)F)c1
T/C [18]: 97 % of control | T/C [16]: 99 % of control | T/C [11]: 97 % of control

COc1cc(Br)cc(C(=O)O)c1OC
T/C (dose: 50.0 mg/kg/injection, schedule: Q01DX009 (ip), vehicle: distilled water + Tween-80): 96 % of control | T/C (dose: 100.0 mg/kg/injection, schedule: Q01DX009 (ip), vehicle: distilled water + Tween-80): 88 % of control

Cc1ccc(C(=O)O)cc1S(=O)(=O)Cl
T/C (dose: 4.0 mg/kg/injection, schedule: Q01DX009 (ip), vehicle: saline with Tween-80): 117 % of control | T/C (dose: 8.0 mg/kg/injection, schedule: Q01DX009 (ip), vehicle: saline with Tween-80): 110 % of control | T/C (dose: 16.0 mg/kg/injection, schedule: Q01DX009 (ip), vehicle: saline with Tween-80): 90 % of control | T/C [18]: 104 % of control | T/C (dose: 32.0 mg/kg/injection, schedule: Q01DX009 (ip), vehicle: saline with Tween-80): 117 % of control | T/C [16]: 95 % of control | T/C [17]: 106 % of control | T/C [11]: 98 % of control | T/C [7]: 100 % of control | T/C [12]: 95 % of control

CC(=O)OCC1OC(n2ccc(N)nc2=O)C(OC(C)=O)C1OC(C)=O (centres undefined)
T/C [16]: 170 % of control | T/C [11]: 188 % of control | T/C (dose: 177.0 mg/kg/injection, schedule: Q04DX003 (ip), vehicle: saline): 177 % of control | T/C [12]: 106 % of control | T/C (dose: 266.0 mg/kg/injection, schedule: Q04DX003 (ip), vehicle: saline): 181 % of control and 195 % of control | T/C (dose: 400.0 mg/kg/injection, schedule: Q04DX003 (ip), vehicle: saline): 187 % of control and 204 % of control | T/C (dose: 600.0 mg/kg/injection, schedule: Q04DX003 (ip), vehicle: saline): 263 % of control and 200 % of control

NS(=O)(=O)c1c([N+](=O)[O-])ncn1C1OC(COC(=O)c2ccccc2)C(OC(=O)c2ccccc2)C1OC(=O)c1ccccc1 (centres undefined)
T/C [1]: 105 % of control | T/C [2]: 100 % of control | T/C [3]: 121 % of control | T/C (dose: 200.0 mg/kg/injection, schedule: Q04DX003 (ip), vehicle: saline): 124 % of control

CCCCCCCCCCCCCCCCCOC(=O)CCCCCCCCCCCCCCCCC
T/C (dose: 25.0 mg/kg/injection, schedule: Q04DX003 (ip), vehicle: saline with Tween-80): 105 % of control | T/C [17]: 105 % of control | T/C [7]: 100 % of control

OC12C3CCCC1CCCC2CCC3 (centres undefined)
T/C [8]: 100 % of control and 108 % of control | T/C (dose: 100.0 mg/kg/injection, schedule: Q04DX003 (ip), vehicle: saline sonified): 108 % of control | T/C [9]: 91 % of control and 100 % of control | T/C (dose: 200.0 mg/kg/injection, schedule: Q04DX003 (ip), vehicle: saline sonified): 90 % of control and 108 % of control | T/C [10]: 100 % of control | T/C (dose: 400.0 mg/kg/injection, schedule: Q04DX003 (ip), vehicle: saline sonified): 109 % of control and 108 % of control

CN(C)[C@@H]1C(=O)C(C(=O)NCNCCCC(=O)O)=C(O)[C@@]2(O)C(=O)C3=C(O)c4c(O)cccc4[C@@](C)(O)[C@H]3C[C@@H]12
T/C [11]: 95 % of control | T/C [12]: 104 % of control | T/C [14]: 104 % of control

S=c1[nH]cc2cnccn12
T/C [18]: 110 % of control | T/C [16]: 115 % of control | T/C [7]: 100 % of control | T/C [12]: 105 % of control | T/C [13]: 110 % of control
